According to patent US8361998B2, “Compounds and their use as IKACh blockers” (AstraZeneca AB, priority 2010, dated 2013):
Where two headings read alike, the source gives them in different places.

Molecular target: T1, human cardiac ion channel proteins hKir3.1/Kir3.4 (Homo sapiens, UniProt P48544+P48549)
T1 construct: expressed in transfected cells
T1 sequence (P48549 1-501): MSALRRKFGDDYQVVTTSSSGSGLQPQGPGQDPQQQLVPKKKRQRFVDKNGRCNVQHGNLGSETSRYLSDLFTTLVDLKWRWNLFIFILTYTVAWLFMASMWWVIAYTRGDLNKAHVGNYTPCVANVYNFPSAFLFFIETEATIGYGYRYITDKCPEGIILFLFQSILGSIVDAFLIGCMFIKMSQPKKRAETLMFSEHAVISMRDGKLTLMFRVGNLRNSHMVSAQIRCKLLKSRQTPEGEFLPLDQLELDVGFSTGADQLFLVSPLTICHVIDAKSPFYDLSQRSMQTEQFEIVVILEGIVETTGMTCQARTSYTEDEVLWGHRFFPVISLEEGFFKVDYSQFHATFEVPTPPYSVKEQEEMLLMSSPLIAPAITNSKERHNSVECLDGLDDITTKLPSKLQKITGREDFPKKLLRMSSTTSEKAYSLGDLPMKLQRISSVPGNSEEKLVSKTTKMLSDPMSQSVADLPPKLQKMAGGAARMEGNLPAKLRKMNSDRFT
T1 sequence (P48544 1-419): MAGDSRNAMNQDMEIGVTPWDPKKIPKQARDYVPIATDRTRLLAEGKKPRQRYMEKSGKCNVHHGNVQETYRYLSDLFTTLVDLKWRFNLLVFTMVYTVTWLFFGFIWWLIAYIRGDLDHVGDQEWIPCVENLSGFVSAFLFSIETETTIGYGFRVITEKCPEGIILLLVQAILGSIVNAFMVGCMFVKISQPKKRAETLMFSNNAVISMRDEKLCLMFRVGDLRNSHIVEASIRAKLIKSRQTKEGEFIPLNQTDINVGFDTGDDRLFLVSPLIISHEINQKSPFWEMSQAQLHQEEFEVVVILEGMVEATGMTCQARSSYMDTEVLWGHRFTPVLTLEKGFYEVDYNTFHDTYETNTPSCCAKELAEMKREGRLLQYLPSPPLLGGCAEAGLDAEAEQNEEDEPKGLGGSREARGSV
Test: Atomic Absorption Screening (AAS) Rb efflux assay of hKir3.1/Kir3.4 block, carbachol/high K+ stimulated, 10-pt or 7-pt CR
Assay type: cell-based
Conditions: AAS Rb efflux, CHO-K1 cells expressing hKir3.1/Kir3.4
Summary of the method: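 CHO-K1 cells stably co-expressing human Kir3.1/Kir3.4 were Rb-loaded for 3 h at 37° C, preincubated with compound 5 min at RT, then stimulated 10 min with 10 μM carbachol plus 20 mM KCl (final). Supernatant Rb was measured by atomic absorption. Compounds ran at 0.003–67 μmol/L (10-pt) or 0.037–27 μmol/L (7-pt), threefold dilutions; IC50s are means of >4 or >3 replicates respectively.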

[1] = 7-pt CR (0.037 to 27 μmol/L), mean of >3 replicates, read-out: IKACh IC50 7-pt CR, AAS
[2] = 10-pt CR (0.003 to 67 μmol/L), mean of >4 replicates, read-out: IKACh IC50 10-pt CR, AAS

Row | IC50 [2] [µM] | SMILES | IC50 [1] [µM]
1 | – | Cc1c(F)cccc1C(=O)N(C)[C@H](CN1CC[C@H](O)C1)C(C)C [Example 16.45, 3-Fluoro-N—((S)-1-((S)-3-hydroxypyrrolidin-1-yl)-3-methylbutan-2-yl)-N,2-dimethylbenzamide] | 16
2 | – | CC(C)[C@@H](CN1CC[C@H](O)C1)N(C)C(=O)c1ccc(F)cc1C(F)(F)F [Example 16.46, 4-Fluoro-N—((S)-1-((S)-3-hydroxypyrrolidin-1-yl)-3-methylbutan-2-yl)-N-methyl-2-(trifluoromethyl)benzamide] | 19
3 | – | CC(C)[C@@H](CN1CCCC1)N(C)C(=O)c1ccc(Cl)cc1Cl [Example 16.47, (S)-2,4-Dichloro-N-methyl-N-(3-methyl-1-(pyrrolidin-1-yl)butan-2-yl)benzamide] | 0.56
4 | – | CC(C)[C@@H](CN1CCCC1)N(C)C(=O)c1cccc(Cl)c1 [Example 16.48, (S)-3-Chloro-N-methyl-N-(3-methyl-1-(pyrrolidin-1-yl)butan-2-yl)benzamide] | 4.2
5 | – | Cc1cc(C(=O)N(C)[C@H](CN2CCCC2)C(C)C)ccc1Cl [Example 16.50, (S)-4-Chloro-N,3-dimethyl-N-(3-methyl-1-(pyrrolidin-1-yl)butan-2-yl)benzamide] | 0.42
6 | – | CC(C)[C@@H](CN1CCCC1)N(C)C(=O)c1ccc(Cl)c(Cl)c1 [Example 16.51, (S)-3,4-Dichloro-N-methyl-N-(3-methyl-1-(pyrrolidin-1-yl)butan-2-yl)benzamide] | 0.46
7 | – | CC(C)[C@@H](CN1CCCC1)N(C)C(=O)c1ccc(Br)c(F)c1 [Example 16.52, (S)-4-Bromo-3-fluoro-N-methyl-N-(3-methyl-1-(pyrrolidin-1-yl)butan-2-yl)benzamide] | 3.2
8 | – | CC(C)[C@@H](CN1CCCC1)N(C)C(=O)c1ccc(Cl)cc1F [Example 16.53, (S)-4-Chloro-2-fluoro-N-methyl-N-(3-methyl-1-(pyrrolidin-1-yl)butan-2-yl)benzamide] | 0.9
9 | 9.1 | CC(C)[C@@H](CN1CCCC1)N(C)C(=O)c1ccccc1OC(F)F [Example 16.54, (S)-2-(Difluoromethoxy)-N-methyl-N-(3-methyl-1-(pyrrolidin-1-yl)butan-2-yl)benzamide] | 6
10 | – | CC(C)[C@H](CN1CCCC1)N(C)C(=O)c1ccc(Cl)c(Cl)c1 [Example 16.56, (R)-3,4-Dichloro-N-methyl-N-(3-methyl-1-(pyrrolidin-1-yl)butan-2-yl)benzamide] | 3.6
11 | – | CC(C)[C@H](CN1CCCC1)N(C)C(=O)c1ccc(Cl)cc1Cl [Example 16.58, (R)-2,4-Dichloro-N-methyl-N-(3-methyl-1-(pyrrolidin-1-yl)butan-2-yl)benzamide] | 5.8
12 | – | CC(C)[C@H](CN1CCCC1)N(C)C(=O)c1ccc(Cl)cc1F [Example 16.59, (R)-4-Chloro-2-fluoro-N-methyl-N-(3-methyl-1-(pyrrolidin-1-yl)butan-2-yl)benzamide] | 18
13 | – | CC(C)[C@H](CN1CCCC1)N(C)C(=O)c1ccc(Br)c(F)c1 [Example 16.60, (R)-4-Bromo-3-fluoro-N-methyl-N-(3-methyl-1-(pyrrolidin-1-yl)butan-2-yl)benzamide] | 16
14 | 11 | Cc1cc(C(=O)N(C)[C@H](CN2CC[C@@H](O)C2)C(C)C)ccc1F [Example 17.3, 4-Fluoro-N—((S)-1-((R)-3-hydroxypyrrolidin-1-yl)-3-methylbutan-2-yl)-N,3-dimethylbenzamide] | –
15 | 17 | CC(C)[C@@H](CN1CC[C@@H](O)C1)N(C)C(=O)c1ccc(Cl)cc1 [Example 17.4, 4-Chloro-N—((S)-1-((R)-3-hydroxypyrrolidin-1-yl)-3-methylbutan-2-yl)-N-methylbenzamide] | –
16 | 2.7 | CC(C)[C@@H](CN1CC[C@@H](O)C1)N(C)C(=O)c1ccc(Br)cc1 [Example 17.5, 4-Bromo-N—((S)-1-((R)-3-hydroxypyrrolidin-1-yl)-3-methylbutan-2-yl)-N-methylbenzamide] | –
17 | 12 | CC(C)[C@@H](CN1CC[C@@H](O)C1)N(C)C(=O)c1ccc(F)c(Cl)c1 [Example 17.6, 3-Chloro-4-fluoro-N—((S)-1-((R)-3-hydroxypyrrolidin-1-yl)-3-methylbutan-2-yl)-N-methylbenzamide] | –
18 | 3.6 | CC(C)[C@@H](CN1CC[C@@H](O)C1)N(C)C(=O)c1ccc(F)c(C(F)(F)F)c1 [Example 17.7, 4-Fluoro-N—((S)-1-((R)-3-hydroxypyrrolidin-1-yl)-3-methylbutan-2-yl)-N-methyl-3-(trifluoromethyl)benzamide] | –
19 | 11 | CC(C)[C@@H](CN1CCCC1)N(C(=O)c1ccc(Cl)cc1)C1CCCC1 [Example 20, (S)-4-Chloro-N-cyclopentyl-N-(3-methyl-1-(pyrrolidin-1-yl)butan-2-yl)benzamide] | –
20 | 19 | Cc1ccc(C(=O)N(C)[C@H](CN2CCC(F)(F)C2)C(C)C)cc1C [Example 21, (S)—N-(1-(3,3-Difluoropyrrolidin-1-yl)-3-methylbutan-2-yl)-N,3,4-trimethylbenzamide] | –
21 | 19 | Cc1cc(C(=O)N(C)[C@](C)(CN2CC(O)C2)C(C)C)ccc1F [Example 22, (S)-4-Fluoro-N-(1-(3-hydroxyazetidin-1-yl)-2,3-dimethylbutan-2-yl)-N,3-dimethylbenzamide] | –
22 | 0.44 | CCC[C@@H](CN1CC(O)C1)N(C)C(=O)c1ccc(C)c(C)c1 [Example 23, (S)—N-(1-(3-Hydroxyazetidin-1-yl)pentan-2-yl)-N,3,4-trimethylbenzamide] | –
23 | 4 | Cc1cc(C(=O)N(C)[C@H](CN2CCC(O)CC2)C(C)C)ccc1F [Example 24, (S)-4-Fluoro-N-(1-(4-hydroxypiperidin-1-yl)-3-methylbutan-2-yl)-N,3-dimethylbenzamide] | –
24 | 17 | Cc1cc(C(=O)N(C)[C@@H](CN2CCC(O)CC2)C(C)C)ccc1F [Example 25, (R)-4-Fluoro-N-(1-(4-hydroxypiperidin-1-yl)-3-methylbutan-2-yl)-N,3-dimethylbenzamide] | –
25 | 7 | Cc1cc(C(=O)N(C)[C@H](CN2CCC(C#N)CC2)C(C)C)ccc1F [Example 26, (S)—N-(1-(4-Cyanopiperidin-1-yl)-3-methylbutan-2-yl)-4-fluoro-N,3-dimethylbenzamide] | –
26 | 1.1 | CC(C)[C@@H](CN1CCC(O)CC1)N(C)C(=O)c1ccc(Cl)cc1 [Example 27, (S)-4-Chloro-N-(1-(4-hydroxypiperidin-1-yl)-3-methylbutan-2-yl)-N-methylbenzamide] | –
27 | 19 | COCC1CN(C[C@H](C(C)C)N(C)C(=O)c2ccc(F)c(F)c2)C1 [Example 28, (S)-3,4-Difluoro-N-(1-(3-(methoxymethyl)azetidin-1-yl)-3-methylbutan-2-yl)-N-methylbenzamide] | –
28 | 0.16 | CC[C@H](C)[C@@H](CN1CC(O)C1)N(C)C(=O)c1ccc(Cl)cc1 [Example 29.2, 4-Chloro-N-((2S,3S)-1-(3-hydroxyazetidin-1-yl)-3-methylpentan-2-yl)-N-methylbenzamide] | –
29 | 0.22 | CCc1ccc(C(=O)N(C)[C@H](CN2CC(O)C2)[C@@H](C)CC)cc1 [Example 29.3, 4-Ethyl-N-((2S,3S)-1-(3-hydroxyazetidin-1-yl)-3-methylpentan-2-yl)-N-methylbenzamide] | –

Row | SMILES | IC50 [2] [µM] | IC50 [1] [µM]
30 | CC(C)c1ccc(C(=O)N(C)[C@H](CN2CCCC2)C(C)C)cc1 [Example 16.49, (S)-4-Isopropyl-N-methyl-N-(3-methyl-1-(pyrrolidin-1-yl)butan-2-yl)benzamide] | 9.7 | 7.1
31 | CC(C)[C@H](CN1CCCC1)N(C)C(=O)c1ccc(Br)cc1 [Example 16.57, (R)-4-Bromo-N-methyl-N-(3-methyl-1-(pyrrolidin-1-yl)butan-2-yl)benzamide] | 8.8 | 11
32 | CC[C@@H](CN1CCCC1)N(C)C(=O)c1ccc(Br)cc1 [Example 17.1, (S)-4-Bromo-N-methyl-N-(1-(pyrrolidin-1-yl)butan-2-yl)benzamide] | 12 | –
33 | CC[C@@H](CN1CCCC1)N(C)C(=O)c1ccc(Cl)c(Cl)c1 [Example 17.2, (S)-3,4-Dichloro-N-methyl-N-(1-(pyrrolidin-1-yl)butan-2-yl)benzamide] | 1.4 | –
